Measured values from US8017557B2, “Benzodioxole derivatives as modulators of proteolytic activity in plants” (Endura S.p.A., priority 2002, dated 2011).
Like-named read-outs stand apart in the source and are kept apart here.

Columns and labels:
bromelain = bromelain (Ananas comosus, UniProt P14518); conditions: for initial velocity, Mean / initial velocity, test 1 / initial velocity, test 2 / Mean (% contr.): 1% PBO; for Mean (% contr.): % of control
Method: The assay was carried out as described in Heinrikson & Kezdy, 1976, Methods in Enzymol. 45, p. 740. The conditions are summarised briefly herein: 50 μg of bromelain was mixed with variable quantities of Na CBZ-L-lysine p-nitrophenyl ester substrate in 3 ml of 10 mM acetate buffer pH 4.6 containing KCl (0.1 M) and L-cystein (1 mM).

[1] = system: peptidase activity in cotton plants; test: Photometric assay of peptidase activity with DL-BAPA as substrate in cotton plants; type: in vivo, cotton (cv. Sicala V2i); conditions: for Peptidase activity, PBO treated cv. V2i Bt: DL-BAPA substrate
Method: The photometric assay was carried out following the DL-BAPA hydrolysis at 410 nm. One peptidase unit (U) was defined as the amount of the enzyme, which produces one unit of absorbance variation at 410 nm/minute at pH 8.2 and 30° C. For each extract, the amount of soluble proteins in mg was determined by the Biuret method and the enzymatic activity was then expressed as specific activity i.e. Units/mg soluble proteins.
Each analysis was performed in duplicate or in triplicate and the standard deviation for each point is also indicated. Abscissa: time (days); ordinate: trypsin units/mg soluble protein.
The samples were collected at different development stages of plants, which were: […], 60 and 85 days after sowing. These samples were also analysed for determining the Bt content (as described in example 4). To this aim, the enzymatic activity was tested on crude freeze dried leaf extracts with two different assays: the Radial Diffusion Assay (RDA), in which a protein, such as the bovine gelatine, was used as a substrate to test the endopeptidase activity, and a photometric assay described in the next example, in which DL-BAPA was used as a substrate, to determine a general peptidase activity.
A powder aliquot, which represents each step of plant growth, of the treated and controls samples was extracted in two steps. The powder sample was extracted with buffer 0.1 M Tris-HCl pH 7.7 (1:20 w/v) using an Ultraturrax blender at 24,000×RPM for 2 min in a ice bath to avoid overheating. […] The clear supernatant was collected and filtrated with Whatman paper no 4. The pellet was further extracted with the same procedure, with the exception that in this case the extraction ratio was 1:10 (w/v). Finally, the supernatants of the two extractions processes were joined and then concentrated 4-5 times by centrifugation at 3,000×g at 15° C. for 2 hours, using suitable concentrators (Amicon Inc. Beverly, Mass.—USA), fitted with a membrane of 10 κD cut off.
For each extract, the amount of soluble proteins was determined by the Biuret method and the enzymatic activity was then expressed as specific activity i.e. Units/mg soluble proteins.
The photometric assay was carried out as described in Erlanger, B. F. et al. Arch. Biochem., 1961, 95: 271-278. In the assay is measured the absorbance variation due to DL-BAPA hydrolysis at 410 nm. The assay was performed mixing directly in the cuvette 20 μl of cotton crude extract with 980 μl of DL-BAPA in buffer 0.1 M Tris-HCl pH 8.2. One peptidase unit was defined as the amount of the enzyme which produces one unit of absorbance variation (410 nm) per minute at pH 8.2 and 30° C.
Each series of analysis was performed in duplicate or triplicate. […] In this figure is shown a maximum of peptidase activity around 60 days of development. […] A statistically significant inhibition is observed during the most part of the plant growing cycle. Finally, in table 7 is shown the specific activities of peptidase of treated and untreated Sicala V2i cotton samples. In this table it is also reported the activity differences in percentage between the treated and untreated samples.

ficin = conditions: Wo 25, HEPES pH 7.1, 30° C.
Method: Reverse micelles assay of ISO-AOT 50 mM (AOT: twin aerosol (2-ethylhexylsodiumsulfosuccinate in isooctane (ISO)); Wo (H2O/AOT)=25
The assays were carried out in the reverse-micelles assay dispersed in organic solvent, described by Walde et al. in Eur. J. Biochem., 1988, 173:401-409, and already reported in the literature in kinetic studies of the inhibition of trypsin with natural and synthetic inhibitors. […]
The enzyme assay on reverse-micelle has been already described in the literature for the enzyme trypsin and was adapted to different enzymes. […] To this solution was added an appropriate volume of substrate CBZ (dissolved in acetonitrile/H2O, 80:20 (v/v) at a concentration of 15 mM) and following further agitation (the solution returned to being transparent), the change in absorbance was measured (Dabs) at 340 nm with a Cary 219 spectrophotometer.
The experimental data obtained are represented graphically in the form of Dixon-plot (described for example in: “Quantitative Problems in Biochemistry”, E A. Dawes, 5th ed. 1972 Baltimore, The Williams and Wilkins Company), in the FIGS. 1, 2 and 3.

[2] = PBO 0.334 % (w/w), substrate 240 μM
[3] = PBO 0.5 % (w/w), substrate 240 μM
[4] = PBO 0.667 % (w/w), substrate 240 μM
[5] = PBO 1 % (w/w), substrate 240 μM
[6] = PBO 1.334 % (w/w), substrate 240 μM
[7] = PBO 1.667 % (w/w), substrate 240 μM

Chain of bromelain (P14518 whole entry): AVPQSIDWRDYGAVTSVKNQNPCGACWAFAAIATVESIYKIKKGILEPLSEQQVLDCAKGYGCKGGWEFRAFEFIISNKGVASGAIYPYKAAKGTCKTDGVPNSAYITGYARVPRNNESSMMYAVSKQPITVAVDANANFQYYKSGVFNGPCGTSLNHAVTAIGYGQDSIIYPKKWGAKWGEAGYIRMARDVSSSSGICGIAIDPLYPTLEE

Question: With `CCCCOCCOCCOCc1cc2c(cc1CCC)OCO2` [PBO, 5-[[2-(2-Butoxyethoxy)ethoxy]methyl]-6-propyl-1,3-benzodioxole] as the compound, how does the “initial velocity, Mean” value (bromelain; substrate 24 μM) read?
Answer: The value was 0.0136 absorbance at 340 nm/min.

Question: And the “initial velocity, test 1” value (bromelain; substrate 24 μM)?
Answer: Its value is 0.0141 absorbance at 340 nm/min.

Question: What about the “initial velocity, test 2” value (bromelain; substrate 24 μM) of the same compound?
Answer: Its value is 0.0130 absorbance at 340 nm/min.

Question: And the “Mean (% contr.)” value (bromelain; substrate 24 μM)?
Answer: Its value is 68%.

Question: And the “initial velocity, Mean” value (bromelain; substrate 48 μM)?
Answer: Its value is 0.0270 absorbance at 340 nm/min.

Question: And the “initial velocity, test 1” value (bromelain; substrate 48 μM)?
Answer: The value was 0.0243 absorbance at 340 nm/min.

Question: What about the “initial velocity, test 2” value (bromelain; substrate 48 μM) of the same compound?
Answer: The value was 0.0297 absorbance at 340 nm/min.

Question: What about the “Mean (% contr.)” value (bromelain; substrate 48 μM) of the same compound?
Answer: The value was 68%.

Question: What about the “initial velocity, Mean” value (bromelain; substrate 96 μM) of the same compound?
Answer: Its value is 0.0490 absorbance at 340 nm/min.

Question: What about the “initial velocity, test 1” value (bromelain; substrate 96 μM) of the same compound?
Answer: Its value is 0.0518 absorbance at 340 nm/min.

Question: What about the “initial velocity, test 2” value (bromelain; substrate 96 μM) of the same compound?
Answer: Its value is 0.0461 absorbance at 340 nm/min.

Question: What about the “Mean (% contr.)” value (bromelain; substrate 96 μM) of the same compound?
Answer: Its value is 78%.

Question: And the “Initial velocity (% of control), Exp. 1” value (bromelain; [2])?
Answer: Its value is 95%.

Question: And the “Initial velocity (% of control), Exp. 2” value (bromelain; [2])?
Answer: The value was 98%.

Question: What about the “Initial velocity, Exp. 1” value (bromelain; [2]) of the same compound?
Answer: Its value is 0.1306 absorbance at 340 nm/min.

Question: And the “Initial velocity, Exp. 2” value (bromelain; [2])?
Answer: The value was 0.1197 absorbance at 340 nm/min.

Question: What about the “Initial velocity, Exp. 3” value (bromelain; [2]) of the same compound?
Answer: Its value is 0.1029 absorbance at 340 nm/min.

Question: What about the “Initial velocity (% of control), Exp. 1” value (bromelain; [3]) of the same compound?
Answer: The value was 91%.

Question: And the “Initial velocity, Exp. 1” value (bromelain; [3])?
Answer: The value was 0.1252 absorbance at 340 nm/min.

Question: And the “Initial velocity (% of control), Exp. 2” value (bromelain; [4])?
Answer: Its value is 88%.

Question: What about the “Initial velocity, Exp. 2” value (bromelain; [4]) of the same compound?
Answer: Its value is 0.1079 absorbance at 340 nm/min.

Question: And the “Initial velocity (% of control), Exp. 1” value (bromelain; [5])?
Answer: Its value is 86%.

Question: What about the “Initial velocity (% of control), Exp. 2” value (bromelain; [5]) of the same compound?
Answer: Its value is 86%.

Question: What about the “Initial velocity, Exp. 1” value (bromelain; [5]) of the same compound?
Answer: Its value is 0.1194 absorbance at 340 nm/min.

Question: And the “Initial velocity, Exp. 2” value (bromelain; [5])?
Answer: The value was 0.1057 absorbance at 340 nm/min.

Question: What about the “Initial velocity (% of control), Exp. 2” value (bromelain; [6]) of the same compound?
Answer: The value was 84%.

Question: What about the “Initial velocity, Exp. 2” value (bromelain; [6]) of the same compound?
Answer: Its value is 0.1029 absorbance at 340 nm/min.

Question: And the “Initial velocity (% of control), Exp. 2” value (bromelain; [7])?
Answer: The value was 76%.

Question: What about the “Initial velocity, Exp. 2” value (bromelain; [7]) of the same compound?
Answer: Its value is 0.0927 absorbance at 340 nm/min.

Question: What about the “PBO concentration with inhibitory activity on bromelain” value (bromelain; substrate 240 μM, concentration dependent) of the same compound?
Answer: The value was “higher than 0.5%”.

Question: And the “Difference % Treated minus untreated (peptidase, DL-BAPA)” value (“Difference % Treated minus untreated” for short) ([1]; 4 days after sowing)?
Answer: Its value is 4.99%.

Question: And the “Peptidase activity, PBO treated cv. V2i Bt” value (“Peptidase activity” for short) ([1]; 4 days after sowing)?
Answer: The value was 5.21 U/mg of soluble protein × 10^−2.

Question: And the “Difference % Treated minus untreated” value ([1]; 35 days after sowing)?
Answer: The value was −23.54%.

Question: What about the “Peptidase activity” value ([1]; 35 days after sowing) of the same compound?
Answer: The value was 9.43 U/mg of soluble protein × 10^−2.

Question: And the “Difference % Treated minus untreated” value ([1]; 60 days after sowing)?
Answer: The value was −25.55%.

Question: And the “Peptidase activity” value ([1]; 60 days after sowing)?
Answer: Its value is 13.62 U/mg of soluble protein × 10^−2.

Question: What about the “Difference % Treated minus untreated” value ([1]; 85 days after sowing) of the same compound?
Answer: The value was 18.68%.

Question: And the “Peptidase activity” value ([1]; 85 days after sowing)?
Answer: Its value is 12.42 U/mg of soluble protein × 10^−2.

Question: And the IC50 (ficin; read-out: IC50 of PBO on ficin, evaluated from Dixon plot)?
Answer: Its IC50 is 800 µM.

Question: What about the Ki (ficin; read-out: inhibition constant (KI) of PBO on the enzyme ficin, Dixon plot, substrate CBZ 1.5×10^−4 M and 6×10^−5 M) of the same compound?
Answer: Its Ki is 450 µM.
